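Tested at 5 concentrations; 48 h exposure; 96-well plates; endpoints linearly interpolated, else capped at highest concentration. At the TGI there is no net growth.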
Tests used:
Assay in all cases: growth of human tumour cells (NCI), 48 h
HT29 colon = test system: HT29 colon
HCT-116 colon = test system: HCT-116 colon
SK-OV-3 ovarian = test system: SK-OV-3 ovarian
NCI-H23 lung = test system: NCI-H23 lung
PC-3 prostate = test system: PC-3 prostate
CAKI-1 renal = test system: CAKI-1 renal
M14 melanoma = test system: M14 melanoma
OVCAR-8 ovarian = test system: OVCAR-8 ovarian
SF-295 CNS = test system: SF-295 CNS
RPMI-8226 leukemia = test system: RPMI-8226 leukemia
SNB-75 CNS = test system: SNB-75 CNS

Structure (SMILES) | TGI (HT29 colon) [µM] | TGI (HCT-116 colon) [µM] | TGI (SK-OV-3 ovarian) [µM] | TGI (NCI-H23 lung) [µM] | TGI (PC-3 prostate) [µM] | TGI (CAKI-1 renal) [µM] | TGI (M14 melanoma) [µM] | TGI (OVCAR-8 ovarian) [µM] | TGI (SF-295 CNS) [µM] | TGI (RPMI-8226 leukemia) [µM] | TGI (SNB-75 CNS) [µM]
NC(N)=NS(=O)(=O)c1ccc(NC(=O)c2cccc3c(NNc4ccc(S(N)(=O)=O)cc4)c4ccccc4nc23)cc1 | > 100 | > 100 | > 100 | > 100 | > 100 | > 100 | > 100 | > 100 | > 100 | > 100 | > 100
COc1cc2[nH]c(=O)c3cc(-c4ccccc4)cc4c(Cl)nc(c1OC)c2c43 | > 60.7 | 12.9 | > 73.9 | 47.5 | > 100 | 71 | > 62.9 | 98.4 | > 100 | > 100 | > 60.3
CC1(C)OC[C@@H](C[C@H](O)COCc2ccccc2)O1 | > 100 | > 100 | > 100 | > 100 | > 100 | > 100 | > 100 | > 100 | > 100 | > 100 | > 100
COCC#C[C@@]1(O)CCCCC1CC(OC)OC (some centres undefined) | > 100 | > 100 | > 100 | > 100 | > 100 | > 100 | > 100 | > 100 | > 100 | 94.5 | > 100
CC(=O)C1(O)CCC2(O)C3(O)CC=C4CC(O)CCC4(C)C3CC(OC(=O)c3ccc(O)cc3)C12C (centres undefined) | > 100 | > 100 | > 100 | > 100 | > 100 | > 100 | > 100 | > 100 | > 100 | > 100 | > 100
O=C1c2cccnc2S(=O)(=O)N1c1ccc([N+](=O)[O-])cc1 | > 100 | > 100 | > 100 | > 100 | > 100 | > 100 | > 100 | > 100 | > 100 | > 100 | > 100
Clc1cc(C(c2cc(Cl)sc2Cl)c2cc(Cl)sc2Cl)c(Cl)s1 | > 100 | > 100 | > 100 | > 100 | > 100 | > 100 | > 100 | > 100 | > 100 | > 100 | > 100
CC(=O)OCC(=O)O[C@@H]1[C@H]2[C@@H](OC(=O)c3ccccc3)[C@@H](C)C[C@]2(O)[C@H](OC(C)=O)[C@@]2(C)C[C@]1(OC(C)=O)C[C@H]1C(=O)C(C)(C)[C@@H](OC(C)=O)[C@@H]12 | > 25 | > 25 | > 25 | > 25 | > 25 | > 25 | > 25 | > 25 | > 25 | > 25 | > 25
Cc1cn(CCCCCOC(=O)NC(CCCNC(N)=O)C(=O)O)c(=O)[nH]c1=O (centres undefined) | > 100 | > 100 | > 100 | > 100 | > 100 | > 100 | > 100 | > 100 | > 100 | > 100 | > 100
CCC(=O)Nc1ccc(NS(=O)(=O)c2ccc(Cl)cc2)cc1 | > 100 | > 100 | > 100 | > 100 | > 100 | > 100 | > 100 | > 100 | > 100 | 54.3 | > 100
C=C(C)[C@H]1CC(=O)/C(C)=C\CC/C(C)=C/CC[C@@]2(C)O[C@@H]2C1 | 33.7 | 32.8 | 59 | 51.8 | 64.5 | 9.41 | > 100 | > 100 | 89.8 | 52.1 | > 100
CCOc1snc(C(Cl)(Cl)Cl)c1Cl | 28.9 | 89.2 | > 100 | 44.3 | > 100 | 83.7 | > 100 | 94.4 | 74.7 | 59.1 | 54.9
Nc1c(S(N)(=O)=O)cc(S(N)(=O)=O)cc1S(N)(=O)=O | > 100 | > 100 | > 100 | > 100 | > 100 | > 100 | > 100 | > 100 | > 100 | > 100 | > 100
Cc1ccc(C(=O)Cc2nc3c([nH]c2=O)c(C)nn3-c2ccccc2)c(C)c1 | > 10 | > 10 | > 10 | > 10 | > 10 | > 10 | > 10 | > 10 | > 10 | > 10 | 3.46
COC(=O)C1=C(C(=O)OC)SC(=C2SC3=C(SC(=C4SCCS4)S3)S2)S1 | > 100 | > 100 | > 100 | > 100 | > 100 | > 100 | > 100 | > 100 | > 100 | > 100 | 6.86
O=C(O)C1=NN(c2ccc(S(=O)(=O)O)cc2)C2(C1)C(Cl)C(=O)N2c1nc2ccccc2s1 (centres undefined) | 34.9 | 33.1 | 30.6 | 30.2 | 31.2 | 31.5 | 30.3 | 38.8 | 32.3 | 35.6 | 30.7
CC1CCc2sc3nc4n(c(=O)c3c2C1)CC(C)S4 (centres undefined) | 33.4 | 67.7 | 96.3 | > 100 | 62.9 | > 100 | 51.8 | > 100 | 52.6 | > 100 | 62.4
Cc1cc(S(=O)(=O)Nc2n[nH]c(Nc3ccccc3)n2)c(SCC(=O)O)cc1Cl | > 100 | > 100 | > 100 | > 100 | > 100 | > 100 | > 100 | > 100 | > 100 | > 100 | > 100
COc1ccc(C2=C(Cl)C(=O)O/C2=C\c2ccc(OC)c(Br)c2)cc1Cl | > 100 | 53.1 | > 100 | 32 | > 100 | > 100 | > 100 | 51.8 | 35.1 | > 100 | > 100
O=c1ccn(-c2ccccn2)c(=O)n1-c1ccccn1 | > 100 | > 100 | > 100 | > 100 | > 100 | > 100 | > 100 | > 100 | > 100 | > 100 | > 100
CCCCCCCCCCCCOCCOCCOCCOCCOCCOCC(=O)NC(Cc1ccccc1)C(=O)Oc1ccc([N+](=O)[O-])cc1 (centres undefined) | > 100 | > 100 | > 100 | > 100 | > 100 | > 100 | > 100 | > 100 | > 100 | > 100 | > 100
O=CN1CCN(C(=O)c2ccco2)C1=S | 26.2 | 24.5 | 70.8 | 40.4 | 23 | 18.5 | 24.1 | 59 | 51.1 | 8.96 | 34.8
O=C(OC12CC3CC(CC(C3)C1)C2)c1ccc(NCc2cc(O)ccc2O)cc1 | 9.73 | 5.28 | 13.2 | 3.8 | 3.37 | 0.825 | 5.18 | 4.11 | 7.5 | 0.401 | 2.68
C[n+]1c(-c2ccc(NC(=O)c3ccc(C(=O)Nc4ccc(-c5cn6ccccc6[n+]5C)cc4)cc3)cc2)cn2ccccc21 | > 100 | > 100 | > 100 | > 100 | > 100 | > 100 | > 100 | > 100 | > 100 | > 100 | > 100

From PubChem BioAssay (NCI)
